The test concerns BDF1 mice, P388 leukemia ip, median survival T/C. Briefly: NCI In Vivo Anticancer Drug Screen. Data for tumor model P388 Leukemia (intraperitoneal) in B6D2F1 (BDF1) mice. As to conditions: endpoint: median survival time, higher = longer survival. An outline of the steps: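 Mice carrying the transplantable tumour receive compound or vehicle. Survival is followed in each arm, and the treated measure is divided by the vehicle measure.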

Setting [1] is: dose: 100.0 mg/kg/injection, schedule: Q04DX003 (ip), vehicle: Klucel (hydroxypropylcellulose) (HPC).
Setting [2] is: dose: 200.0 mg/kg/injection, schedule: Q04DX003 (ip), vehicle: Klucel (hydroxypropylcellulose) (HPC).
Setting [3] is: dose: 400.0 mg/kg/injection, schedule: Q04DX003 (ip), vehicle: Klucel (hydroxypropylcellulose) (HPC).
The mark [4] stands for this setting: dose: 50.0 mg/kg/injection, schedule: Q01DX001 (ip), vehicle: saline with Tween-80.
Where [5] appears, read: dose: 100.0 mg/kg/injection, schedule: Q01DX001 (ip), vehicle: saline with Tween-80.
[6] abbreviates: dose: 100.0 mg/kg/injection, schedule: Q01DX009 (ip), vehicle: Klucel (hydroxypropylcellulose) (HPC).
The mark [7] stands for this setting: dose: 100.0 mg/kg/injection, schedule: Q04DX003 (ip), vehicle: saline with Tween-80.
Setting [8] is: dose: 200.0 mg/kg/injection, schedule: Q04DX003 (ip), vehicle: saline with Tween-80.
The mark [9] stands for this setting: dose: 100.0 mg/kg/injection, schedule: Q04DX003 (ip), vehicle: other.
[10] abbreviates: dose: 200.0 mg/kg/injection, schedule: Q04DX003 (ip), vehicle: other.
Where [11] appears, read: dose: 400.0 mg/kg/injection, schedule: Q04DX003 (ip), vehicle: other.

Where “and” joins values, the source holds several entries; their conditions need not be identical. Equal values may be shown once. Toxic doses and inconclusive results are not listed.

As for `CCCCCCCCCCCCCCCCCC(=O)Oc1ccc(OCc2ccccc2)cc1`, the T/C under setting [1] is 100 % of control, the T/C under setting [2] is 100 % of control and the T/C under setting [3] is 90 % of control.
On to `Cc1nc2ccc3nc(N)nc(N)c3c2nc1C`, for which the T/C by setting is: under setting [4], 104 % of control; under setting [5], 101 % of control; (dose: 200.0 mg/kg/injection, schedule: Q01DX001 (ip), vehicle: saline with Tween-80) 111 % of control.
As to `Cc1c([C@H](C)[C@@H]2NC[C@@H](C)C[C@H]2O)ccc2c1C[C@H]1[C@H]2CC=C2C[C@@H](O)CC[C@@]21C`, the T/C (dose: 3.0 mg/kg/injection, schedule: Q01DX010 (ip), vehicle: carboxymethylcellulose (CMC)) was 115 % of control.
As to `c1ccc(N/N=C(/C[n+]2cc3ccccc3c3ccccc32)c2ccccc2)cc1`, the T/C is, setting by setting: (dose: 25.0 mg/kg/injection, schedule: Q01DX009 (ip), vehicle: Klucel (hydroxypropylcellulose) (HPC)) 114 % of control; (dose: 33.0 mg/kg/injection, schedule: Q01DX009 (ip), vehicle: Klucel (hydroxypropylcellulose) (HPC)) 113 % of control; (dose: 35.0 mg/kg/injection, schedule: Q01DX009 (ip), vehicle: Klucel (hydroxypropylcellulose) (HPC)) 95 % of control; (dose: 50.0 mg/kg/injection, schedule: Q01DX009 (ip), vehicle: Klucel (hydroxypropylcellulose) (HPC)) 100 % of control; (dose: 75.0 mg/kg/injection, schedule: Q01DX009 (ip), vehicle: Klucel (hydroxypropylcellulose) (HPC)) 112 % of control and 122 % of control; under setting [6], 114 % of control.
As to `COc1ccc2c(c1)N=C1CCCC3CCCCC123` (stereo not drawn), the T/C by setting is: under setting [7], 99 % of control; under setting [8], 114 % of control.
Consider `CCCCCCCCC(C(O)c1ccccc1)C(O)(C(F)(F)F)C(F)(F)F` (stereo not drawn), for which the T/C is 90 % of control under setting [9], 95 % of control under setting [10] and 115 % of control under setting [11].
For `CC(=O)N(O)c1ccc(Cl)cc1`, the T/C reads like this: (dose: 25.0 mg/kg/injection, schedule: Q04DX002 (ip), vehicle: saline with Tween-80) 91 % of control and 100 % of control; (dose: 50.0 mg/kg/injection, schedule: Q04DX002 (ip), vehicle: saline with Tween-80) 104 % of control and 110 % of control.
For `Nc1ccccc1SC1CC(=O)N(c2cccc3ccccc23)C1=O` (stereo not drawn), the T/C under setting [6] is 118 % of control; the T/C under setting [1] is 104 % of control; the T/C (dose: 200.0 mg/kg/injection, schedule: Q01DX009 (ip), vehicle: Klucel (hydroxypropylcellulose) (HPC)) was 118 % of control; the T/C under setting [2] is 100 % of control; the T/C (dose: 400.0 mg/kg/injection, schedule: Q01DX009 (ip), vehicle: Klucel (hydroxypropylcellulose) (HPC)) was 100 % of control; the T/C under setting [3] is 90 % of control.
Regarding `COC(OC)c1[nH]c(=S)[nH]c(=O)c1C`, the T/C (dose: 100.0 mg/kg/injection, schedule: Q04DX003 (sc), vehicle: olive oil, sesame oil, peanut oil) was 90 % of control; the T/C (dose: 200.0 mg/kg/injection, schedule: Q04DX003 (sc), vehicle: olive oil, sesame oil, peanut oil) is 95 % of control; the T/C (dose: 400.0 mg/kg/injection, schedule: Q04DX003 (sc), vehicle: olive oil, sesame oil, peanut oil) was 90 % of control.
For `NNc1ccnc2[nH]ncc12`, the T/C was 107 % of control (dose: 6.25 mg/kg/injection, schedule: Q01DX006 (ip), vehicle: saline with Tween-80); 104 % of control (dose: 12.5 mg/kg/injection, schedule: Q01DX006 (ip), vehicle: saline with Tween-80); 104 % of control (dose: 25.0 mg/kg/injection, schedule: Q01DX006 (ip), vehicle: saline with Tween-80).
As to `O=Nc1ccc2ccccc2c1O`, the T/C is 107 % of control (dose: 50.0 mg/kg/injection, schedule: Q01DX001 (ip), vehicle: Klucel (hydroxypropylcellulose) (HPC)) and 104 % of control (dose: 100.0 mg/kg/injection, schedule: Q01DX001 (ip), vehicle: Klucel (hydroxypropylcellulose) (HPC)).
Consider `C1CC[N-]CC1.C1CC[N-]CC1.[Cl][Pt+2]([Cl])([Cl])[Cl]`, for which the T/C is 95 % of control (dose: 100.0 mg/kg/injection, schedule: Q01DX009 (ip), vehicle: saline with Tween-80) and 90 % of control (dose: 200.0 mg/kg/injection, schedule: Q01DX009 (ip), vehicle: saline with Tween-80).
In the case of `C/C(=N/N(C)C)c1nc(N)nc(N)c1-c1ccc(Cl)cc1`, the T/C (dose: 25.0 mg/kg/injection, schedule: Q01DX001 (ip), vehicle: saline with Tween-80) was 102 % of control; the T/C under setting [4] was 109 % of control; the T/C under setting [5] was 90 % of control and 96 % of control.
Turning to `ClCCN(CCCl)CCCN1c2ccccc2Sc2ccccc21`, the T/C was 150 % of control (dose: 3.12 mg/kg/injection, schedule: Q04DX003 (ip), vehicle: saline with Tween-80); 158 % of control and 169 % of control (dose: 12.5 mg/kg/injection, schedule: Q04DX003 (ip), vehicle: saline with Tween-80); 152 % of control (dose: 25.0 mg/kg/injection, schedule: Q04DX003 (ip), vehicle: saline with Tween-80).
As to `CC(=O)Oc1ccc[nH]c1=O`, the T/C (dose: 200.0 mg/kg/injection, schedule: Q01DX009 (ip), vehicle: saline) is 100 % of control; the T/C (dose: 264.0 mg/kg/injection, schedule: Q01DX009 (ip), vehicle: saline with Tween-80) was 115 % of control; the T/C (dose: 400.0 mg/kg/injection, schedule: Q01DX009 (ip), vehicle: saline) is 150 % of control; the T/C (dose: 600.0 mg/kg/injection, schedule: Q01DX009 (ip), vehicle: saline with Tween-80) was 115 % of control; the T/C (dose: 600.0 mg/kg/injection, schedule: Q01DX009 (ip), vehicle: saline) is 95 % of control.
In the case of `CCCCCCCCCCCCNC(=O)OCCN(CCOC(=O)NCCCCCCCCCCCC)C(=O)COc1ccc(Cl)cc1`, the T/C was 100 % of control under setting [9], 100 % of control under setting [10] and 100 % of control under setting [11].
On to `CCCCCNC(=O)Nc1cccc(Cl)c1C`, for which the T/C runs as follows: (dose: 6.25 mg/kg/injection, schedule: Q01DX009 (ip), vehicle: saline with Tween-80) 116 % of control; (dose: 12.5 mg/kg/injection, schedule: Q01DX009 (ip), vehicle: saline with Tween-80) 109 % of control; (dose: 25.0 mg/kg/injection, schedule: Q01DX009 (ip), vehicle: saline with Tween-80) 108 % of control; (dose: 50.0 mg/kg/injection, schedule: Q01DX009 (ip), vehicle: saline with Tween-80) 99 % of control.
Regarding `CCCNC1=C(C)C(=O)C2=C(C1=O)[C@H](COC(N)=O)[C@]1(OC)[C@@H]3N[C@@H]3CN21`, the T/C (dose: 2.0 mg/kg/injection, schedule: Q01DX009 (ip), vehicle: saline sonified) is 205 % of control; the T/C (dose: 2.0 mg/kg/injection, schedule: Q01DX009 (ip), vehicle: saline) is 180 % of control; the T/C (dose: 3.0 mg/kg/injection, schedule: Q01DX009 (ip), vehicle: saline) is 200 % of control; the T/C (dose: 3.13 mg/kg/injection, schedule: Q01DX009 (ip), vehicle: saline sonified) is 150 % of control.
Take `COC(=O)C(Cc1ccc(N(CCCl)CCCl)cc1)N=NNc1nc[nH]c1C(N)=O` (stereo not drawn): the T/C (dose: 14.0 mg/kg/injection, schedule: Q04DX003 (ip), vehicle: saline) was 154 % of control; the T/C (dose: 33.0 mg/kg/injection, schedule: Q04DX003 (ip), vehicle: saline) was 195 % of control; the T/C (dose: 50.0 mg/kg/injection, schedule: Q04DX003 (ip), vehicle: saline) is 213 % of control.
As to `CCOC/C(C)=C/Cl`, the T/C is 104 % of control (dose: 50.0 mg/kg/injection, schedule: Q01DX009 (ip), vehicle: acetone); 116 % of control (dose: 100.0 mg/kg/injection, schedule: Q01DX009 (ip), vehicle: acetone); 112 % of control (dose: 200.0 mg/kg/injection, schedule: Q01DX009 (ip), vehicle: acetone).
As to `Cc1cc(C)c(NS(=O)(=O)c2ccccc2)c(C)n1`, the T/C reads like this: under setting [7], 100 % of control; under setting [8], 91 % of control; (dose: 400.0 mg/kg/injection, schedule: Q04DX003 (ip), vehicle: saline with Tween-80) 91 % of control.
With `CCOC(=O)C(Br)C(Br)c1ccccc1` (stereo not drawn), the T/C is 100 % of control (dose: 50.0 mg/kg/injection, schedule: Q01DX001 (ip), vehicle: saline); 91 % of control (dose: 50.0 mg/kg/injection, schedule: Q04DX003 (ip), vehicle: saline with Tween-80); 90 % of control (dose: 100.0 mg/kg/injection, schedule: Q01DX001 (ip), vehicle: saline); 108 % of control under setting [7]; 118 % of control (dose: 200.0 mg/kg/injection, schedule: Q01DX001 (ip), vehicle: saline); 112 % of control under setting [8].

(Values after PubChem BioAssay AID328 (DTP/NCI, 2004).)
